Measured values reported in patent US6458983B1, “Method for synthesizing complexes of platinum with iminoethers and their use as antitumoral drugs and nucleotide-base modifiers” (priority 1998, dated 2002).
Marks after values point to notes of the source that are not given here.

Tests used:
[1] = test system: pulmonary carcinoma (Calu); test: Inhibition of in vitro proliferation of human tumor cells, Calu; assay type: cell-based; settings: 72 hours treatment, cell number vs untreated control; read-out: Inhibitory concentrations (IC50) Calu
Method: (§1) The antitumoral activity of compounds having the formula trans-[PtCl2(NH3){Z-HN═C(OMe)Me}] (1) and trans-[PtCl2(NH3){E-HN═C(OMe)Me}] (2) was tested. Specifically, the antitumoral activity of compounds (1) and (2) was analyzed in experimental systems in vitro, testing for inhibition of the proliferation of human tumor cells in culture and in vivo by testing the increment in survival of mice carriers of P388 murine leukemia.
(§2) The inhibitory effect of compounds (1) and (2) on the in vitro proliferation of human tumor cells of ovarian carcinoma (A2780), pulmonary carcinoma (Calu), colon carcinoma (LoVo) and on an ovarian carcinoma line (A2780/cp8) with resistance to cisplatinum is presented in the following Table I.
(§3) Proliferation inhibition is expressed by means of IC50 values, which indicate the concentration of compound (μM) in the culture medium that determines a 50% reduction in the proliferation of the treated cells with respect to untreated cells.
(§4) The IC50 values were extrapolated from dose-response curves obtained by treating for 72 hours the tumor cells with various concentrations of the tested compounds dissolved in the culture medium and checking, at the end of the incubation period, the number of cells present in the treated samples with respect to the number of cells in the untreated samples (control).

[2] = test system: ovarian carcinoma (A2780); test: Inhibition of in vitro proliferation of human tumor cells, A2780; assay type: cell-based; settings: 72 hours treatment, cell number vs untreated control; read-out: Inhibitory concentrations (IC50) A2780
Method: as §1, §2, §3, §4

P388 murine leukaemia = test: Antitumoral activity in vivo, survival of P388 murine leukemia carrier mice; design: species or system B6D2F1 female mice
Method: as §1
The antiumoral activity in vivo of compounds 1 and 2, expressed as an increment in the survival of P388 murine leukemia carrier mice, was also tested.
(§5) ^a P388 leukemic cells (10^6/animal) were inoculated in the peritoneum in B6D2F1 female mice (body weight=18 g) on day 0; treatment with the platinum compounds, dissolved at the time of use in a physiological solution, was performed on days 1-7, administering IP the doses indicated in the table in a volume equal to 0.1 ml/10 g body weight.
^c ILS=(average of the days of survival of treated mice/average of days of survival of untreated mice) X 100.

colon carcinoma (LoVo) = test: Inhibition of in vitro proliferation of human tumor cells, LoVo; assay type: cell-based; settings: 72 hours treatment, cell number vs untreated control; read-out: Inhibitory concentrations (IC50) Lo Vo
Method: as §1, §2, §3, §4

[3] = Body weight variation and toxicity in treated P388 carrier mice; assay type: in vivo; settings: at the end of the treatment
Method: as §5
^b Percentage variation of body weight of the animals at the end of the treatment.

[4] = test system: ovarian carcinoma line (A2780/cp8) with resistance to cisplatinum; test: Inhibition of in vitro proliferation of human tumor cells, A2780/cp8; assay type: cell-based; settings: 72 hours treatment, cisplatinum-resistant line; read-out: Inhibitory concentrations (IC50) A2780/cp8
Method: as §1, §2, §3, §4

[5] = background statement; cited from earlier work
[6] = test system: solid and lymphoproliferative murine tumors; settings: background statement; cited from earlier work
tumor cells = settings: cited from earlier work
[7] = 10 mg/kg IP daily, ILS = (average survival days treated/untreated) × 100
[8] = 15 mg/kg IP daily, ILS = (average survival days treated/untreated) × 100
[9] = 20 mg/kg IP daily, ILS calculated on 4 animals

Row | Structure (SMILES) | IC50 [1] | IC50 [2] | ILS (P388 murine leukaemia; [7]) | ILS (P388 murine leukaemia; [8]) | ILS (P388 murine leukaemia; [9]) | IC50 (colon carcinoma (LoVo)) | Percentage variation of body weight ([3]; 10 mg/kg IP daily) | Percentage variation of body weight ([3]; 15 mg/kg IP daily) | Percentage variation of body weight ([3]; 20 mg/kg IP daily) | IC50 [4] | antitumoral activity [5] | further results
1 | COC(C)=N.N.[Cl][Pt][Cl] [Compound 2, trans-[PtCl2(NH3){E-HN═C(OMe)Me}]] | 55 µM | 8.5 µM | 128 | 152 | 132^e | 7 µM | −1.8% | −3.1% | −10% | 8.6 µM | – | –
2 | N.N.[Cl][Pt+2][Cl] [trans-DDP, trans-[PtCl2(NH3)2]] | – | – | – | – | – | – | – | – | – | – | no antitumoral activity | –
3 | COC(C)=N.N.[Cl][Pt][Cl] [Compound 1, trans-[PtCl2(NH3){Z-HN═C(OMe)Me}]] | 90 µM | 37 µM | 165 | 173 | 190^d | 21 µM | −1.5% | −4.4% | −11.5% | 35 µM | – | –
4 | N.NC1CCCCC1.[OH][Pt]([OH])([Cl])[Cl] [trans-[PtCl2(OH)2(NH3){NH2(C6H11)}]] | – | – | – | – | – | – | – | – | – | – | antitumoral activity in vitro and in vivo | –
5 | COC(C)=N.COC(C)=N.[Cl][Pt][Cl] [trans-[PtCl2{E-HN═C(OMe)Me}2]] | – | – | – | – | – | – | – | – | – | – | – | antitumoral activity in vivo [6]: antitumoral activity in vivo
6 | [Cl][Pt][Cl].c1ccncc1.c1ccncc1 [trans-[PtCl2(pyridine)2]] | – | – | – | – | – | – | – | – | – | – | – | cytotoxic effect in vitro against tumor cells (tumor cells): higher cytotoxic effect in vitro against tumor cells than trans-DDP
